Data from US8497123B2, “Sterol glucoside toxins” (priority 2000, dated 2013).
Entries after “also recorded” stand apart in the source; their conditions may differ. Where two headings read alike, the source gives them in different places.

What was measured:
[1] = tested on: adult rat neocortex cortical wedges; type: cell-based; conditions: for field potential response with AMPA antagonist NBQX: co-application of NBQX or other AMPA antagonists; for field potential response: cortical wedge, Mg2+-free buffer; for field potential response with NMDA receptor antagonists (AP5, kynurenate, MK801): co-application of NMDA antagonist
Experimental: Cortical ‘wedges’ were prepared as described previously (Shaw et al., 1996). In brief, animals were anesthetized with CO2, decapitated, and a cortical block rapidly removed and placed in cold Krebs-Henseleit buffer containing (in mM): NaCl 124, KCl 3.3, NaHCO3 25, glucose 10, KH2PO4 1.2, CaCl2 2.4, and MgSO4 1.2, bubbled with 5% CO2/95% O2, pH 7.4. The cortical block was sectioned into […] thick coronal slices using a Vibratome (Campden Instruments) and the slices cut into pie shaped wedges in which the white matter formed the narrow edge of the wedge. Each wedge was placed on a net across a grease gap between two fluid filled chambers. The cortical side of the wedge was bathed (at room temperature, approx. 25° C.) in buffer lacking Mg^2+; the callosal portion was bathed in buffer containing Mg^2+ to minimize neural activity. Field potentials were differentially recorded between the two chambers using two Ag/AgCl electrodes. Recordings from up to 6 wedges, each in individual chambers, could be made simultaneously for each experiment. The wedges were continuously perfused on the cortical side with oxygenated, Mg^2+-free buffer using a gravity feed system. Using this system, drugs could be rapidly substituted for control media to examine response characteristics. Wedges typically survived for up to 8 hrs. Responses were recorded on LabView™ after amplification and A/D conversion and the traces were charted in Excel™ for Windows™. Statistical analysis of peak response amplitude was performed by one-way ANOVA using Bonferroni's post test with GraphPad Prism™.

[2] = tested on: human cortical astrocytes; type: cell-based; conditions: for apoptotic cell loss (cell density, caspase-3): cortical astrocytes on coverslips
Experimental: FIG. 5: Caspase-3 labeling of human cortical astrocytes in tissue culture. Fetal human telencephalic astrocytes were grown to confluency and then exposed to NMDA, BSSG, cholesterol glucoside (CG), or hydrogen peroxide (H2O2) for various periods. […] At longer time points, the overall numbers of cells in these conditions declined.
We have raised cortical astrocytes on coverslips in culture, exposing them to […], or cholesterol glucoside. Cell loss was measured directly by cell density measurements; apoptosis was measured by staining cells for caspase-3 labeling.

[3] = tested on: rat cortical slices; conditions: for LDH release (cell death) / LDH release in presence of AP5 / NMDA antagonists: rat cortical slices; for LDH release (cell death): 1 hr at 37° C.; for LDH release in presence of AP5 / NMDA antagonists: plus AP5
Experimental: Cortical slices were prepared as described above in the glutamate release experiments and placed in tissue culture wells containing Krebs-Heinsleight buffer supplemented with 0.0004% H2O2 and 1 mg/mL glucose. […] For additional comparison and to establish the limits of the method, some slices were freeze-thawed to kill all the cells. Alternatively, some slices were incubated in buffer containing 1.2 mM Mg^2+ in order to diminish spontaneous neural activity. At the end of the 1 hr incubation period, 3 samples (100 μl of buffer, each sample) were taken from each well. LDH assays were performed on these samples using a LDH diagnostic kit (Sigma) following the manufacturer's protocol with some modifications. In brief, 0.5 ml of pyruvate solution was mixed with 0.5 mg pre-weighed NADH. 100 μl of slice medium (free of slices) was added to the mixture and incubated for 30 min at 37° C. 0.5 ml of Sigma coloring reagent (2, 4-dinitrophenylhydrazine in HCl, 2 mg/ml) was added to develop the color and the mixture was incubated for 20 min at room temperature. 5 ml of 0.4 N NaOH were added to each tube. After 5 min, optical density was read at 440 nm. Standard curves were prepared for each assay using different concentrations of pyruvate solution (0-960 units). LDH activity (in International Units) was calculated from the standard curve and normalized by total protein content of each slice as determined by the Lowry protein assay (Peterson, 1979). One International Unit represents the amount of enzyme required to convert 1 μmol of substrate/minute at room temperature.
(§1) Data for LDH and glutamate release experiments were analyzed for significance by one way ANOVA using Dunnett's and Bonferroni's post tests with GraphPad Prism™.

[4] = tested on: rat cortical slices; type: cell-based
Experimental: Brain slices were taken from cortical blocks in which all subcortical tissue had been removed. […] slices were cut using a modified slice cutter (Van Huizen et al., 1989). Slices were rinsed twice for 5 min in Mg^+2 containing Krebs-Henseleit buffer pH 7.4. Incubation media consisted of 100 μM cold glutamate, 20 μM AP5 and 10 μM DNQX, the latter NMDA or AMPA antagonists, respectively. 10 nM of [^3H]-glutamate was added to the mixture and incubated for 1 hr at 37° C. under in oxygenated atmosphere (O2/CO2=95/5%). Experimental treatments were performed in […] Mg^+2 free buffer placed in tissue culture wells containing different concentrations of MSO or isolated BSSG fractions of cycad flour. Slices were removed at the end of incubation period and the supernatant removed for scintillation counting. The supernatant fractions were placed in scintillation vials containing NEN Formula 989 for a minimum of 12 hrs before being counted in a Beckman LS6000 scintillation counter. Results were normalized to the dpm counts of respective controls.
as §1

[5] = tested on: Rats; conditions: rats fed MSO
Experimental: Terminal deoxynucleotidyl transferase (TdT) mediated dUTP-digoxigenin (DIG) nickend labeling (TUNEL) was carried out using an Intergen ApopTag Plus peroxidase kit using the manufacturer's protocol adapted from Gavrieli et al. (1992) with some modifications. […] Briefly, 20 μM thick coronal sections were cut on a cryostat then fixed in 1% paraformaldehyde at room temperature for 2 days. […] After rinsing with PBS, the sections were then exposed to 11 μL/cm^2 working strength of TdT enzyme for 1 hr at 37° C. After washing in PBS, 15 μL/cm^2 of anti-digoxigenin-peroxidase was applied for 30 min in a humidified chamber at room temperature. Colour was developed by adding 125 μl DAB substrate working solution for 6 min. Slides were counter-stained with methyl green for 25 minutes at room temperature. Positive apoptosis controls were generated by pre-incubating sections with DNAase (Sigma).

[6] = fetal human telencephalic astrocytes, vs. control (DMEM)

Compound: Cc1onc(O)c1CC(N)C(=O)O (stereo not drawn) [AMPA, α-amino-3-hydroxy-5-methyl-4-isoxazolepropionic acid]
- field potential response with AMPA antagonist NBQX [1]: blocked

Compound: CC[C@H](CC[C@@H](C)[C@H]1CC[C@H]2[C@@H]3CC=C4C[C@@H](O[C@@H]5O[C@H](CO)[C@@H](O)[C@H](O)[C@H]5O)CC[C@]4(C)[C@H]3CC[C@]12C)C(C)C [BSSG, beta-sitostrol-beta-D-glucoside (5-cholesten-24b-ethyl-3b-ol-D-glucoside)]
- apoptotic cell loss (cell density, caspase-3) [2]: time-dependent apoptotic cell loss
- caspase-3 positive labeling [2, 6]: significant caspase-3 positive labeling
- LDH release (cell death) [3]: qualitative similarity
- field potential response ([1]; bath application): qualitative similarity

Compound: OO [H2O2, hydrogen peroxide]
- caspase-3 positive labeling ([2]; human): significant caspase-3 positive labeling
- effect on LDH release [3]: did not affect

Compound: CS(=N)(=O)CC[C@H](N)C(=O)O (stereo partly shown) [MSO, methionine sulfoximine]
- LDH release (cell death) [3]: increased cell death
- LDH release in presence of AP5 / NMDA antagonists [3]: blocked
- calcium dependence of [3H]-glutamate release ([4]; calcium 0 (L) or 2 mM (H)): calcium dependent
- preloaded [3H]-glutamate release ([4]; rat cortical slices): significantly increased
- [3H]-glutamate release in presence of AP5 ([4]; rat cortical slices, plus AP5): blocked
- apoptosis in CNS [5]: evidence of apoptosis
- concentration at which depolarizing field potentials begin ([1]; bath application, cortical wedge from adult rat): approx. 50 μM
- field potential response ([1]; bath application): depolarizing field potentials
- field potential response with AMPA antagonist NBQX [1]: not blocked
- field potential response with NMDA receptor antagonists (AP5, kynurenate, MK801) [1]: blocked

Compound: CN[C@H](CC(=O)O)C(=O)O [NMDA, N-methyl-D-aspartate]
- caspase-3 positive labeling [2, 6]: significant caspase-3 positive labeling
- LDH release (cell death) [3]: increased cell death
- LDH release in presence of AP5 / NMDA antagonists [3]: attenuated; also recorded: blocked
- field potential response with NMDA receptor antagonists (AP5, kynurenate, MK801) [1]: blocked

Compound: C[C@@H]1O[C@@H](O[C@H]2C[C@@H](O)[C@]3(CO)[C@H]4[C@H](O)C[C@]5(C)[C@@H](C6=CC(=O)OC6)CC[C@]5(O)[C@@H]4CC[C@]3(O)C2)[C@H](O)[C@H](O)[C@H]1O [Ouabain, ouabain]
- LDH release (cell death) [3]: little LDH release
- field potential response ([1]; bath application): small hyperpolarizing responses

Compound: CC(C)CCC[C@@H](C)[C@H]1CC[C@H]2[C@@H]3CC=C4C[C@@H](O[C@@H]5O[C@H](CO)[C@@H](O)[C@H](O)[C@H]5O)CC[C@]4(C)[C@H]3CC[C@]12C [cholesterol glucoside, 5-cholesten-3b-ol-3b-D-glucoside]
- apoptotic cell loss (cell density, caspase-3) [2]: time-dependent apoptotic cell loss
- caspase-3 positive labeling [2, 6]: significant caspase-3 positive labeling
- LDH release (cell death) [3]: qualitatively similar to β-sitosterol-β-D-glucoside
- field potential response ([1]; bath application): qualitatively similar to β-sitosterol-β-D-glucoside

Compound: CC(C)CCC[C@@H](C)[C@H]1CC[C@H]2[C@@H]3CC=C4C[C@@H](O)CC[C@]4(C)[C@H]3CC[C@]12C [cholesterol]
- LDH release (cell death) [3]: without effect
- field potential response ([1]; bath application): without effect

Compound: CO[C@H]1[C@@H](O)[C@@H](C)O[C@@H](O[C@H]2CC[C@]3(C)[C@H]4CC[C@]5(C)[C@@H](C6=CC(=O)OC6)CC[C@]5(O)[C@@H]4CC[C@]3(O)C2)[C@@H]1O [emicymarin]
- LDH release (cell death) [3]: little LDH release
- field potential response ([1]; bath application): small hyperpolarizing responses

Compound: C=C(C)[C@H]1CN[C@H](C(=O)O)[C@H]1CC(=O)O [kainic acid]
- apoptotic cell loss (cell density, caspase-3) [2]: time-dependent apoptotic cell loss

Compound: CC[C@H](CC[C@@H](C)[C@H]1CC[C@H]2[C@@H]3CC=C4C[C@@H](O)CC[C@]4(C)[C@H]3CC[C@]12C)C(C)C [β-sitosterol agylcone, beta-sitosterol (stigmasta-5-en-3beta-ol)]
- LDH release (cell death) [3]: without effect
- field potential response ([1]; bath application): without effect
